# Results published in patent publication EP0483928A1, “2-Saccharinylmethyl aryl carboxylates useful as proteolytic enzyme inhibitors and compositions and method of use” (STERLING WINTHROP INC., priority 1990, dated 1992).
# Structures can show the parent of a compound that is named as a salt. Where two headings read alike, the source gives them in different places.
# Target: T1, human leukocyte elastase (HLE) (Homo sapiens, UniProt P08246)
# T1 sequence (P08246 30-267): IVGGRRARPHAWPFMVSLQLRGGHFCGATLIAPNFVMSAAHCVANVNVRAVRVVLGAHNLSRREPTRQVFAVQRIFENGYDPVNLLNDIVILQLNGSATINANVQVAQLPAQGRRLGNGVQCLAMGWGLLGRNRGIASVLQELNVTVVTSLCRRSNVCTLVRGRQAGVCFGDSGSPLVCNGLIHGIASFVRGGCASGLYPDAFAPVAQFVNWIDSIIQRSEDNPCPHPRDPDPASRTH
# Test: Inhibition of human leukocyte elastase: rate of inactivation kon and inhibition constant Ki* (koff/kon)
# Type: biochemical
# [1] = Ki* = koff/kon, calculated from measured koff and kon, not a truly reversible Ki, read-out: K*i
# Experimental: Thus, instead of measuring a Ki, a Ki* is calculated which is defined as the ratio of the koff/kon, the rate of reactivation of the enzyme to the rate of inactivation of the enzyme. The values of koff and kon are measured and Ki* is then calculated.
# The rate of inactivation, kon, of enzymatic activity was determined for the compounds tested by measuring the enzyme activity of an aliquot of the respective enzyme as a function of time after addition of the test compound. […] The rate of inactivation is then equal to [formula] where [I] is the concentration of the inhibiting compound.
# The reactivation constant, koff, is similarly determined, and the inhibition constant, Ki*, is then calculated as Ki * = koff /kon [formula]
SMILES,Ki [1] [nM],Ki [nM]
COCC(COc1cc(C(C)C)c2c(c1)S(=O)(=O)N(COC(=O)c1c(Cl)cccc1Cl)C2=O)OC (racemic) [Example 5F],0.027,–
CC(C)c1cccc2c1C(=O)N(COC(=O)c1c(Cl)ccc(S(=O)(=O)N(C)CCN(C)C)c1Cl)S2(=O)=O [Example 1AA],0.01,–
COc1ccc(Cl)c(C(=O)OCN2C(=O)c3c(C(C)C)cccc3S2(=O)=O)c1Cl [Example 1AB],0.016,–
COc1cc(Cl)c(C(=O)OCN2C(=O)c3c(C(C)C)cccc3S2(=O)=O)c(Cl)c1 [Example 1AC],0.025,–
CC(C)c1cccc2c1C(=O)N(COC(=O)c1c(Cl)ccc(OCCN(C)C)c1Cl)S2(=O)=O [Example 1AE],0.009,–
CC(C)c1cccc2c1C(=O)N(COC(=O)c1c(F)ccc(S(=O)(=O)N3CCN(C)CC3)c1F)S2(=O)=O [Example 1AG],0.01,–
COc1cc(C(C)C)c2c(c1)S(=O)(=O)N(COC(=O)c1c(Cl)ccc(OCCN3CCCCC3)c1Cl)C2=O [Example 1AU],0.03,–
COc1cc2c(c(C(C)C)c1OC)C(=O)N(COC(=O)c1c(Cl)cccc1Cl)S2(=O)=O [Example 1BB],0.35,–
CCCc1c(OC)c(OC)cc2c1C(=O)N(COC(=O)c1c(Cl)ccc(OCCN3CCOCC3)c1Cl)S2(=O)=O [Example 1BD],0.07,–
CCOP(=O)(OCC)c1cccc(C(=O)OCN2C(=O)c3c(C(C)C)cc(OC)cc3S2(=O)=O)c1 [Example 1BE],–,0.064
COc1cc(C(C)C)c2c(c1OC)S(=O)(=O)N(COC(=O)c1c(Cl)ccc(S(=O)(=O)N3CCN(C)CC3)c1Cl)C2=O [Example 1BH],0.6,–
CC(C)c1cc2c(c3c1C(=O)N(COC(=O)c1c(Cl)ccc(S(=O)(=O)N4CCN(C)CC4)c1Cl)S3(=O)=O)OCO2 [Example 1BI],0.029,–
COc1cc(C(C)C)c2c(c1)S(=O)(=O)N(COC(=O)c1c(OC)cccc1OC)C2=O [Example 1BK],0.088,–
COc1cc(C(C)C)c2c(c1)S(=O)(=O)N(COC(=O)c1c(F)cccc1F)C2=O [Example 1BL],0.043,–
COc1cc(C(C)C)c2c(c1)S(=O)(=O)N(COC(=O)c1c(OC)ccc([N+](=O)[O-])c1OC)C2=O [Example 1BN],0.025,–
COc1cc(C(C)C)c2c(c1)S(=O)(=O)N(COC(=O)c1c(OC)cc(OCc3ccccc3)cc1OC)C2=O [Example 1BP],0.35,–
CC(C)c1cccc2c1C(=O)N(COC(=O)c1c(Cl)cc(OCCN3CCOCC3)cc1Cl)S2(=O)=O [Example 1BY],0.025,–

SMILES,Ki [1] [nM],Ki [nM]
"CC(C)c1cc(O)cc2c1C(=O)N(COC(=O)c1c(Cl)cccc1Cl)S2(=O)=O [Example 1C, 4-isopropyl-6-hydroxysaccharinylmethyl 2,6-dichlorobenzoate]",0.4,–
O=C(O)CNS(=O)(=O)c1ccc(Cl)c(C(=O)OCN2C(=O)c3ccccc3S2(=O)=O)c1Cl [Example 1T],4,–
CC(C)c1cccc2c1C(=O)N(COC(=O)c1c(Cl)ccc(S(=O)(=O)N3CCOCC3)c1Cl)S2(=O)=O [Example 1U],0.01,–
CC(C)c1cccc2c1C(=O)N(COC(=O)c1c(Cl)ccc(S(=O)(=O)N3CCN(C)CC3)c1Cl)S2(=O)=O [Example 1V],0.007,–
CC(C)c1cccc2c1C(=O)N(COC(=O)c1c(Cl)ccc(S(=O)(=O)NCC(=O)O)c1Cl)S2(=O)=O [Example 1W],0.01,–
CC(C)c1cccc2c1C(=O)N(COC(=O)c1cccc(OCc3ccccc3)c1)S2(=O)=O [Example 1X],0.5,–
CC(C)c1cccc2c1C(=O)N(COC(=O)c1c(Cl)ccc(OCc3ccccc3)c1Cl)S2(=O)=O [Example 1Y],0.12,–
"CC(C)c1cccc2c1C(=O)N(COC(=O)c1c(Cl)ccc(S(=O)(=O)N3CCN(Cc4ccccc4)CC3)c1Cl)S2(=O)=O [Example 1Z, 4-isopropyl-2-saccharinylmethyl 2,6-dichloro-3-(4-benzyl-1-piperazinyl-sulfonyl)benzoate]",0.06,–
"CC(C)c1cccc2c1C(=O)N(COC(=O)c1c(Cl)ccc(S(=O)(=O)N3CCNCC3)c1Cl)S2(=O)=O [Example 2B, 4-isopropyl-2-saccharinylmethyl 2,6-dichloro-3-(1-piperazinylsulfonyl)benzoate hydrochloride]",0.02,–
"COc1cc(C(C)C)c2c(c1)S(=O)(=O)N(COC(=O)c1c(Cl)ccc(S(=O)(=O)NCC(=O)O)c1Cl)C2=O [Example 2D, 4-isopropyl-6-methoxy-2-saccharinylmethyl 2,6-dichloro-3-carboxymethylamino-sulfonylbenzoate]",0.008,–
"CC(C)c1cccc2c1C(=O)N(COC(=O)c1c(Cl)ccc(OCC(=O)O)c1Cl)S2(=O)=O [Example 3, 4-isopropyl-2-saccharinylmethyl 2,6-dichloro-3-carboxymethoxybenzoate]",0.01,–
CC(C)Oc1cc(C(C)C)c2c(c1)S(=O)(=O)N(COC(=O)c1c(Cl)cccc1Cl)C2=O [Example 5B],0.057,–
COCCOCCOc1cc(C(C)C)c2c(c1)S(=O)(=O)N(COC(=O)c1c(Cl)cccc1Cl)C2=O [Example 5D],0.03,–
COC(=O)COc1cc(C(C)C)c2c(c1)S(=O)(=O)N(COC(=O)c1c(Cl)cccc1Cl)C2=O [Example 5E],0.017,–
"CC(C)c1cc(-c2cccn2C)cc2c1C(=O)N(COC(=O)c1c(Cl)cccc1Cl)S2(=O)=O [Example 5J, 4-isopropyl-6-[2-[1-methyl]pyrrolidinyl]saccharinylmethyl 2,6-dichlorobenzoate]",0.2,–
"CC(C)c1cc(OCC(=O)OC(C)(C)C)cc2c1C(=O)N(COC(=O)c1c(Cl)cccc1Cl)S2(=O)=O [Example 7A, 6-(2-t-butoxy-2-oxoethoxy)-4-isopropyl-2-saccharinylmethyl 2,6-dichlorobenzoate]",0.08,–

# Continued by falling Ki [1], values first:
Ki [1] [nM],SMILES,Ki [nM]
18,COc1ccc(C(=O)OCN2C(=O)c3ccccc3S2(=O)=O)c(OC)c1 [Example 1E],–
3,O=C(OCN1C(=O)c2ccccc2S1(=O)=O)c1cccc2ccccc12 [Example 1F],–
2.1,O=C(OCN1C(=O)c2ccccc2S1(=O)=O)c1c2ccccc2cc2ccccc12 [Example 1AM],–
2,COc1cc(C(C)C)c2c(c1OC)S(=O)(=O)N(COC(=O)c1c(Cl)cccc1Cl)C2=O [Example 1BF],–
2,O=C(OCN1C(=O)c2ccccc2S1(=O)=O)c1c(Cl)ccc(S(=O)(=O)N2CCOCC2)c1Cl [Example 1S],–
1,CC(C)c1cccc2c1C(=O)N(COC(=O)c1ccc(Cl)cc1Cl)S2(=O)=O [Example 1AO],–
0.9,CCc1c(OC)cc(OC)c2c1C(=O)N(COC(=O)c1c(Cl)cccc1Cl)S2(=O)=O [Example 1AY],–
0.48,CC(C)c1cccc2c1C(=O)N(COC(=O)c1cccc3ccccc13)S2(=O)=O [Example 1I],–
0.3,COc1cc(C(C)C)c2c(c1)S(=O)(=O)N(COC(=O)c1c(C)cc(OCc3ccccc3)cc1C)C2=O [Example 1BZ],–
0.3,CC(C)c1cccc2c1C(=O)N(COC(=O)c1c3ccccc3cc3ccccc13)S2(=O)=O [Example 1L],–
0.25,CC(C)c1cccc2c1C(=O)N(COC(=O)c1cc(Cl)ccc1Cl)S2(=O)=O [Example 1M],–
0.09,Cc1cccc(C)c1C(=O)OCN1C(=O)c2c(C(C)C)cccc2S1(=O)=O [Example 1K],–
0.08,COc1cc(C(C)C)c2c(c1)S(=O)(=O)N(COC(=O)c1c(C)cccc1C)C2=O [Example 1BM],–
0.078,CCCc1c(OC)c(OC)cc2c1C(=O)N(COC(=O)c1c(Cl)cccc1Cl)S2(=O)=O [Example 1BA],–
0.068,COc1cc(F)c(C(=O)OCN2C(=O)c3c(C(C)C)cc(OC)cc3S2(=O)=O)c(F)c1 [Example 1BQ],–
0.057,COc1cc(C(C)C)c2c(c1)S(=O)(=O)N(COC(=O)c1c(OC)ccc(NC(C)=O)c1OC)C2=O [Example 1BR],–
0.054,CC(C)c1cc(OC2CCC2)cc2c1C(=O)N(COC(=O)c1c(Cl)cccc1Cl)S2(=O)=O [Example 5G],–
0.05,COc1cc(OC)c(C(=O)OCN2C(=O)c3c(C(C)C)cc(OC)cc3S2(=O)=O)c(OC)c1 [Example 1BO],–
0.05,"CCOc1cc(C(C)C)c2c(c1)S(=O)(=O)N(COC(=O)c1c(Cl)cccc1Cl)C2=O [Example 5A, 6-ethoxy-4-isopropyl-2-saccharinylmethyl 2,6-dichlorobenzoate]",–
0.043,CC(C)c1cc2c(c3c1C(=O)N(COC(=O)c1c(Cl)cccc1Cl)S3(=O)=O)OCO2 [Example 1BG],–
0.04,"CC(C)c1cccc2c1C(=O)N(COC(=O)c1c(Cl)ccc(O)c1Cl)S2(=O)=O [Example 2A, 4-isopropyl-2-saccharinylmethyl 2,6-dichloro-3-hydroxybenzoate]",–
0.036,COc1cc(C(C)C)c2c(c1)S(=O)(=O)N(COC(=O)c1ccccc1C(C)C)C2=O [Example 1BS],–
0.033,CCOc1cc(C(C)C)c2c(c1)S(=O)(=O)N(COC(=O)c1c(Cl)ccc(OCCN3CCOCC3)c1Cl)C2=O [Example 1AX],–
0.03,CC(C)c1cc(OCC2COC(C)(C)O2)cc2c1C(=O)N(COC(=O)c1c(Cl)cccc1Cl)S2(=O)=O (centres unmarked) [Example 5C],–
0.029,CC(C)c1cc2c(c3c1C(=O)N(COC(=O)c1c(Cl)ccc(OCCN4CCOCC4)c1Cl)S3(=O)=O)OCO2 [Example 1BJ],–
0.023,CCN(CC)CCOc1ccc(Cl)c(C(=O)OCN2C(=O)c3c(C(C)C)cc(OC)cc3S2(=O)=O)c1Cl [Example 1AV],–
0.016,"CC(C)c1cc(OCC(O)CO)cc2c1C(=O)N(COC(=O)c1c(Cl)cccc1Cl)S2(=O)=O (centres unmarked) [Example 6, 6-(2,3-dihydroxypropoxy)-4-isopropylsaccharinylmethyl 2,6-dichlorobenzoate]",–
0.013,COc1cc(C(C)C)c2c(c1)S(=O)(=O)N(COC(=O)c1c(Cl)ccc(OCCN(C)C)c1Cl)C2=O [Example 1AS],–
0.01,CC(C)c1cccc2c1C(=O)N(COC(=O)c1c(Cl)ccc(S(=O)(=O)N(C)CCCN(C)C)c1Cl)S2(=O)=O [Example 1AF],–
